Source: patent US7183252B2, “Indole peptidomimetics as thrombin receptor antagonists” (Ortho-McNeil Pharmaceutical, Inc., priority 1999, dated 2007)

Columns and labels:
[1] = molecular target: T1, thrombin receptor (PAR-1) (Homo sapiens, UniProt P25116); experiment: In vitro thrombin receptor binding assay (CHRF membranes); conditions: tritiated 721-40 radioligand, read-out: Bndg IC50 (Thrombin receptor binding)
T1 construct: CHRF membranes (Jones, Biochim. Biophys. Acta 1992, 1136, 272) are thawed from −70° C; endogenous in cells; host or cells: CHRF cell membranes
T1 sequence (P25116 22-425): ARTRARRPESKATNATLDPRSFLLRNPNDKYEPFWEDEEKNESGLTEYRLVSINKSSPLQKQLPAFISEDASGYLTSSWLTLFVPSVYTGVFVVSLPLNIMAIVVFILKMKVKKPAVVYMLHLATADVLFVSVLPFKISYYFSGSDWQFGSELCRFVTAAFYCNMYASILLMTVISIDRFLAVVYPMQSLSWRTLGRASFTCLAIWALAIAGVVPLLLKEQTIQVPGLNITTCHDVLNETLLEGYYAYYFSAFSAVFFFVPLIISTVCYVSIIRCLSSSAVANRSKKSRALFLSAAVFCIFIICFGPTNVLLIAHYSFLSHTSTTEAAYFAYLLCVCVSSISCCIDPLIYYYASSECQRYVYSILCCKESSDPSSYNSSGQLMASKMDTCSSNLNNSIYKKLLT
In short: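 CHRF cell membranes incubated 30 min with tritiated peptide agonist 721–40 and compound at 3.7 μg/mL final (0.6% DMSO) in HEPES/MgCl2/BSA buffer. Nonspecific binding defined with unlabeled 721–40; bound radioactivity counted after filtration onto PEI-treated filters.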

gel-filtered platelets = experiment: In vitro inhibition of thrombin-induced gel-filtered platelet aggregation; type: cell-based; conditions: Platelet; human gel-filtered platelets; agonist thrombin 50 μL of 1 unit/mL; read-out: Thrmb IC50 (Thrombin-induced aggregation of gel-filtered platelets)
In short: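 Gel-filtered (Sepharose 2B) human platelets from citrated PRP, 2×10^7 per sample, in Tyrode's buffer pH 7.4 with BSA and added calcium, preincubated with test compound. Aggregation induced by thrombin (50 μL of 1 unit/mL) and followed as light transmission over 3 min. Inhibition is taken relative to control-treated platelets.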

Row | Structure (SMILES) | IC50 [1] | IC50 (gel-filtered platelets)
1 | Cc1ccccc1Cn1c(Cl)c(CN2CCCC2)c2ccc(NC(=O)N[C@@H](Cc3cccc(F)c3)C(=O)N[C@@H](CCCN=C(N)N)C(=O)NCc3ccc(F)cc3)cc21 [Compound 173] | 0.76 µM | 2 µM
2 | CN1CCN(C(=O)[C@H](CCCN)NC(=O)[C@H](Cc2ccc(F)c(F)c2)NC(=O)Nc2ccc3c(CN4CCCC4)cn(Cc4c(Cl)cccc4Cl)c3c2)CC1 [Compound 114] | 0.26 µM | 2.4 µM
